CC(CO)(CO)CO
solubility (mole fraction)
Conditions | 283.15 K | 288.15 K | 293.15 K | 298.15 K | 303.15 K | 311.05 K | 313.15 K | 318.15 K
in ethyl acetate | 0.00205 | 0.00263 | 0.00335 | 0.00433 | 0.00528 | 0.00673 | 0.00841 | 0.0105
in methyl acetate | 0.0026 | 0.00317 | 0.00398 | 0.00512 | 0.00638 | 0.00801 | 0.00997 | 0.013
in n-butanol | 0.0386 | 0.0449 | 0.0535 | 0.0634 | 0.0769 | 0.0914 | 0.11 | 0.131

— BigSolDB 2.1
